Results reported in patent publication US4427693A, “Antiinflammatory 4,5-diaryl-α,α-bis (polyhalomethyl)-2-thiophenemethanamines” (E. I. Du Pont de Nemours and Company, priority 1981, dated 1984).
Read-outs that look alike come from different tables or passages of the source.

System: Adjuvant-Induced Arthritis
Assay: Established Adjuvant-Induced Arthritis in Rats
Assay type: in vivo, Charles River Lewis male rats
Conditions: for ED50: Rattus norvegicus, 168 h, read-out: ED50 = effective dose for 50% decrease from control paw volume
Protocol: A procedure for detecting and comparing the antiinflammatory activity of compounds in this series and standard drugs for which there is a good correlation with human efficacy is the adjuvant-induced arthritis test in rats.
Established Adjuvant-Induced Arthritis in Rats
Charles River Lewis male rats (130-150 grams) are injected subcutaneously in plantar area of the right hind paw with 0.1 ml of adjuvant (Difco heatkilled, lyophilized Mycobacterium butyricum suspended in mineral oil 5 mg/ml). 20 Non-arthritic controls are injected with mineral oil. The animals are held for 2 weeks to allow development of arthritis. Paw volumes (uninjected, left hind paw) are measured and the adjuvant injected rats are culled and distributed to treatment groups of 10 of equal disease severity. Non-arthritic controls are distributed to 2 groups of 10. The rats are given oral doses of compound or PVA-Acacia (Polyvinyl Alcohol 1%, Gum Acacia, U.S.P. 5%, Methylparaben 0.5%) (10 ml/kg) by gavage on that day and on the 6 following days. One day after the last dose the paw volumes (uninjected, left hind paw) are measured using a Ugo Basile Volume Differential Meter Model 7101. [formula]
Dose-response regression lines of the % decrease are plotted on semi-log paper by visual fit and the ED50% decrease from control paw volume is determined by inspection.

[1] = oral by gavage, daily, 7 days, dose-response regression lines, by visual fit

Compound | ED50 [1] [mg/kg] | other results
NC(c1cc(-c2ccccc2)c(-c2ccccc2)s1)(C(F)(F)F)C(F)(F)F [Example 5] | 17 | 
CSc1ccc(-c2sc(C(N)(C(F)(F)F)C(F)(F)F)cc2-c2ccc(F)cc2)cc1 [Example 3, 4-(4-fluorophenyl)-5-(4-methylthiophenyl)-α,α-bis(trifluoromethyl)-2-thiophenemethanamine] | 9 | 
CNC(c1cc(-c2ccc(F)cc2)c(-c2ccc(F)cc2)s1)(C(F)(F)F)C(F)(F)F [Example 28, 1-[4,5-Bis(4-fluorophenyl)thiophen-2-yl]-2,2,2-trifluoro-1-trifluoromethyl-N-methylethanamine] | 6.2 | 
NC(c1cc(-c2ccc(F)cc2)c(-c2ccc(F)cc2)s1)(C(F)(F)F)C(F)(F)Cl (stereo not shown) [Example 6] | 3.8 | 
NC(c1cc(-c2ccccc2F)c(-c2ccccc2F)s1)(C(F)(F)F)C(F)(F)F [Example 18] |  | Percent Decrease From Control Paw Volume (daily oral dose 81 mg/kg, 7 days, p < 0.001 compared to control by Students "t" test): 41%
Cc1ccc(-c2cc(C(N)(C(F)(F)F)C(F)(F)F)sc2-c2ccc(C)cc2)cc1 [Example 13] |  | Percent Decrease From Control Paw Volume (daily oral dose 24 mg/kg, 7 days, p < 0.05 compared to control by Students "t" test): 27%
CC(=O)Oc1ccccc1C(=O)O [Aspirin, reference compound] |  | ED50 (po): 270 mg/kg
NC(c1cc(-c2ccc(F)cc2)c(-c2ccc(F)cc2)s1)(C(F)F)C(F)(F)F (stereo not shown) [Example 7] | 10.5 | 
COc1ccc(-c2cc(C(N)(C(F)(F)F)C(F)(F)F)sc2-c2ccc(OC)cc2)cc1 [Example 1, 4,5-Bis(4-methoxyphenyl)-α,α-bis(trifluoromethyl)-2-thiophenemethanamine] |  | Percent Decrease From Control Paw Volume (daily oral dose 27 mg/kg, 7 days, p < 0.001 compared to control by Students "t" test): 47%
NC(c1cc(-c2ccc(F)cc2)c(-c2ccc(F)cc2)s1)(C(F)(F)F)C(F)(F)F [Example 2, 4,5-bis(4-fluorophenyl)-α,α-bis(trifluoromethyl)-2-thiophenemethanamine] | 1.3 | 
CCCCC1C(=O)N(c2ccccc2)N(c2ccccc2)C1=O [Phenylbutazone, reference compound] | 10 | 
NC(c1cc(-c2ccc(F)cc2)c(-c2ccc(Cl)cc2)s1)(C(F)(F)F)C(F)(F)F [Example 4] |  | Percent Decrease From Control Paw Volume (daily oral dose 9 mg/kg, 7 days, p < 0.1 compared to control by Students "t" test): 37%
COc1ccc2c(c1)c(CC(=O)O)c(C)n2C(=O)c1ccc(Cl)cc1 [Indomethacin, reference compound] |  | ED50 (po): 0.25 mg/kg
